Legend:
[1] = molecular target: 5-HT2B receptor (Homo sapiens (Human), UniProt P41595); experiment: FLIPR Ca^2+ flux agonist assay at 5-HT2B; assay type: cell-based; details: HEK293
Method in brief: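 Agonist-induced calcium flux was measured on FLIPR Tetra in stable HEK293 cells for 5-HT2A and 5-HT2B, and in stable CHO cells for 5-HT1A. Cells were loaded with Fluo-4 Direct dye and 2.5 mM probenecid for 50 min at 37 °C before compound addition and fluorescence reading.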

[2] = molecular target: D1 receptor (Homo sapiens (Human), UniProt P21728); experiment: FLIPR Ca^2+ flux agonist assay at D1; assay type: cell-based
Experimental: Functional Assays at Adrenergic and Dopamine Receptors. Agonist activity at Alpha1A, Alpha2A, D1, and D2 receptors was determined using a FLIPR Ca^2+ flux assay at WuXi AppTec (Hong Kong) Limited according to their standard protocols. Briefly, stably transfected cells expressing the receptor of interest were grown and plated in a 384 well plate and incubated at 37° C. and 5% CO2 overnight. A solution of 250 mM probenecid in 1 mL FLIPR assay buffer was prepared fresh. This was combined with a fluorescent dye (Fluo-4 Direct™) to make a final assay concentration of 2.5 mM. […] The fluorescent dye was then added to the assay plate along with assay buffer to a final volume of 40 μL. The cell plate was incubated for 50 min at 37° C. and 5% CO2 and placed into the FLIPR Tetra along with the compound plate. 10 μL of references and compounds were then transferred from the compound plate into the cell plate and the fluorescent signal was read.

[3] = test system: C57BL/6 mice; experiment: Mouse head twitch response (HTR) assay; assay type: in vivo; details: SC; for Most Efficacious Dose / # HTR at Most Efficacious Dose / Emax (95% CI): mouse HTR; for # HTR at Most Efficacious Dose / Emax (95% CI) / head twitch response (HTR), in words: 20 min observation; for Emax (95% CI): curve fit; for head twitch response (HTR), in words: mice
Experimental: Agonists of the 5-HT2A receptor are well known to induce this effect in rodents and the potency of this HTR is correlated with hallucinogenic potency in humans.
Animals. Adult male C57BL/6 mice, aged 6-8 weeks (body weight 20-25 g) were used in this experiment. Animals were housed under controlled temperatures and 12-hour light/dark cycles (lights on between 07:00-19:00 h), with ad libitum food and water. This study was carried out in strict accordance with the requirements of the Committee for the Purpose of Control and Supervision of Experiments on Animals (CPCSEA), India. All efforts were made to minimize suffering.
Drugs and Drug Administration. Compound 1 was synthesized as described above. It was administered subcutaneously (SC) dissolved in saline vehicle at a volume of 10 mL/kg. Five doses were tested, with n=6 animals/group. Doses were calculated on the basis of the freebase.
Procedure. Mice were administered one dose of the drug and immediately placed into a small open field for behavioral observation. Animals were observed continuously for 20 mins and the number of head twitches (HTs) were counted by an observer blind to the treatment condition.
Statistical Analysis. The data points shown are the mean±standard error of the mean (SEM). Analysis was performed using GraphPad Prism 6. Curves were fit using a non-linear gaussian distribution to calculate ED50 and Emax values.
Additional disclosed compounds were tested in the mouse head twitch response (HTR) assay according to the procedure described in Example 34. […] Lastly, compounds with much larger benzyl and phenethyl substituents on the amine nitrogen (e.g., 10 and 11) were low efficacy in this assay, consistent with their lower maximal efficacy in the arrestin functional assay (see Example 32).

[4] = test system: Sprague Dawley rats; experiment: Forced swim test (FST) in rats; assay type: in vivo, rat; details: for Time Immobile / efficacy in FST relative to positive control desipramine, in words: rat FST; for Time Immobile: 23.5 hours after a single dose; for efficacy in FST relative to positive control desipramine, in words: 0.032 mg/kg
Experimental: Compound 1 induced antidepressant-like effects in the forced swim test (FST) in rats with a 23.5-h pre-treatment time (FIG. 2).
Animals. Male Sprague Dawley rats, aged 9-10 weeks, were used in this experiment. Animals were housed in groups of 2 under controlled temperature (22±3° C.) and relative humidity (30-70%) conditions, with 12-hour light/dark cycles, and with ad libitum food and water. This study was carried out in strict accordance with the requirements of the Committee for the Purpose of Control and Supervision of Experiments on Animals (CPCSEA), India. All efforts were made to minimize suffering.
Drugs and Drug Administration. Compound 1 was synthesized as described above. Desipramine HCl was commercially obtained. The test compound, saline vehicle, and the positive control desipramine were administered subcutaneously (SC), with doses calculated based on the freebase. Normal saline was used as the vehicle. All compounds were administered at a volume of 5 mL/kg. The test compound and vehicle were administered 0.5 h after the start of the training swim (Swim 1) and 23.5 h before the test swim (Swim 2). Desipramine was administered 3 times, at 23.5 h, 5 h, and 1 h before the test swim (Swim 2), each time at a dose of 20 mg/kg. Group size was n=10 per treatment.
Forced Swim Test (FST). […] Rats were handled for about 2 min daily for the 5 days prior to the beginning of the experimental procedure. On the first day of the experiment (i.e., Day 0), post randomization, training swim sessions (Swim 1) were conducted between 12:00 and 18:00 h with all animals by placing rats in individual glass cylinders (46 cm tall×20 cm in diameter) containing 23-25° C. water 30 cm deep for 15 minutes. At the conclusion of Swim 1, animals were dried with paper towels, placed in heated drying cages for 15 minutes, and then returned to their home cages. Animals were then administered the appropriate drug or vehicle treatment(s), as described above. For clarity, a compound administration time of 23.5 h before Swim 2 means 0.5 h after the start of Swim 1 and 0.25 h after the completion of Swim 1 (i.e., immediately after return to the home cage). On Day 1 (i.e., 24 h after start of Swim 1), animals performed the test swim (Swim 2) for a period of 5 min but otherwise under the same conditions as Swim 1. During all swim sessions, the water was changed between each animal.
Behavioral scoring was conducted by observers who were blind to the treatment groups. Animals were continuously observed during Swim 2 and the total time spent engaging in the following behaviors was recorded: immobile, swimming, and climbing. A rat was judged to be immobile when it remained floating in the water without struggling and was making only those movements necessary to keep its head above water. A rat was judged to be swimming when it made active swimming motions, more than necessary to merely maintain its head above water (e.g., moving around in the cylinder). A rat was judged to be climbing when it made active movements with its forepaws in and out of the water, usually directed against the walls.
Statistical Analysis. The data points shown represent the mean±standard error of the mean (SEM). Analysis was performed using GraphPad Prism 6. Comparisons between groups were performed using the one-way analysis of variance (ANOVA), followed by Dunnett's test for comparisons to vehicle.
Additional disclosed compounds were tested in the forced swim test (FST) in rats according to the procedure described in Example 35.

Chain of D1 receptor (P21728 whole entry, looked up): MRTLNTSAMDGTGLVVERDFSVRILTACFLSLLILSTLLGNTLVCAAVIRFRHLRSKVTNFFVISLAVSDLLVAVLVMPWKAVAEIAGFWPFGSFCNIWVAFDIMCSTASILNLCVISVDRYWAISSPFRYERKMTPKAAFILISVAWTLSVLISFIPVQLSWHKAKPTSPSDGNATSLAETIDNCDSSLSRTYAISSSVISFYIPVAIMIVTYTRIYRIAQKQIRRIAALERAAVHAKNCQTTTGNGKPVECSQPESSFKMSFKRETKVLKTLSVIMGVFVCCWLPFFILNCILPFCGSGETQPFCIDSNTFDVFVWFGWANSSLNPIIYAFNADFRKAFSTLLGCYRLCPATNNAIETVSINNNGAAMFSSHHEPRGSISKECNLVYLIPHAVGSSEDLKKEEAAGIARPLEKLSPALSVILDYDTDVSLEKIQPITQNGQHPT
Chain of 5-HT2B receptor (P41595 whole entry, looked up): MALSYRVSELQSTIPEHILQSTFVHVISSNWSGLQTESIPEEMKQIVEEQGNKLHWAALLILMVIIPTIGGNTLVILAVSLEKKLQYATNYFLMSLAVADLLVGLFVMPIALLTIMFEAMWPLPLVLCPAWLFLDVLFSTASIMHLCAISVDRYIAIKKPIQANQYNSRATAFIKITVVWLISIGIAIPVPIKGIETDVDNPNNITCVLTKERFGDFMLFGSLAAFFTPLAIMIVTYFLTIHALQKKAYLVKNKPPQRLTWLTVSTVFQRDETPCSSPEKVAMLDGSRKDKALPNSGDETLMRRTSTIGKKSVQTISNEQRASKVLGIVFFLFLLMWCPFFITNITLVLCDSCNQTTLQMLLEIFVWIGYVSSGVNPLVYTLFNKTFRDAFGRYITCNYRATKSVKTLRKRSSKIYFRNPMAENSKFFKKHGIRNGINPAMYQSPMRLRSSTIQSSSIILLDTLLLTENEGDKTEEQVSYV

| SMILES | 5-HT2B % Act @ Max Dose [1] [%] | D1 % Act @ Max Dose [2] [%] | Most Efficacious Dose [3] | # HTR at Most Efficacious Dose [3] | Emax (95% CI) [3] | Time Immobile ([4]; 0.032 mg/kg SC) [s] | efficacy in FST relative to positive control desipramine, in words ([4]; SC) | Time Immobile ([4]; 0.32 mg/kg SC) [s] | head twitch response (HTR), in words [3] | Time Immobile ([4]; 0.01 mg/kg SC) [s] | immobility time relative to vehicle control, in words ([4]; rats, SC, 23.5 hours after a single administration) |
| --- | --- | --- | --- | --- | --- | --- | --- | --- | --- | --- | --- |
| CCN(CC)C(=O)[C@@H]1C=C2c3cccc4[nH]cc(c34)C[C@H]2N(CCCF)C1 [Compound 2, (6aR,9R)-N,N-diethyl-7-(3-fluoropropyl)-4,6,6a,7,8,9-hexahydroindolo[4,3-fg]quinoline-9-carboxamide] | 101.16 | 113.6 | (0.32 mg/kg) | 21.833 | 20.47 | 76.44 | as efficacious as the positive control desipramine | 41.33 |  |  |  |
| CCCN1C[C@H](C(=O)NC(CC)CC)C=C2c3cccc4[nH]cc(c34)C[C@H]21 [Compound 6, (6aR,9R)-N-(pentan-3-yl)-7-propyl-4,6,6a,7,8,9-hexahydroindolo[4,3-fg]quinoline-9-carboxamide] | 92.93 | 93.13 | (1 mg/kg) | 20.5 | 23.06 | 93.6 |  | 76.6 |  |  |  |
| CCCN1C[C@H](C(=O)N[C@H](C)CC)C=C2c3cccc4[nH]cc(c34)C[C@H]21 [Compound 3, (6aR,9R)-N-((R)-sec-butyl)-7-propyl-4,6,6a,7,8,9-hexahydroindolo[4,3-fg]quinoline-9-carboxamide] | 94.11 | 121.3 | (0.32 mg/kg) | 27.0 | 25.56 | 137.5 |  | 50.4 |  |  |  |
| CCN(CC)C(=O)[C@@H]1C=C2c3cccc4[nH]cc(c34)C[C@H]2N(CCc2ccccc2OC)C1 [Compound 11, (6aR,9R)-N,N-diethyl-7-(2-methoxyphenethyl)-4,6,6a,7,8,9-hexahydroindolo[4,3-fg]quinoline-9-carboxamide] | 2.5 | 90.9 | (3.2 mg/kg) | 12.0 | 19.79 |  |  |  | low efficacy |  |  |
| CCN(CC)C(=O)[C@@H]1C=C2c3cccc4[nH]cc(c34)C[C@H]2N(Cc2ccccc2OC)C1 [Compound 10, (6aR,9R)-N,N-diethyl-7-(2-methoxybenzyl)-4,6,6a,7,8,9-hexahydroindolo[4,3-fg]quinoline-9-carboxamide] | 2.005 | 114.19 | (3.2 mg/kg) | 6.5 | 7.749 |  |  |  | low efficacy |  |  |
| CCCN1C[C@H](C(=O)N2[C@@H](C)C[C@@H]2C)C=C2c3cccc4[nH]cc(c34)C[C@H]21 [Compound 4, ((2S,4S)-2,4-dimethylazetidin-1-yl)((6aR,9R)-7-propyl-4,6,6a,7,8,9-hexahydroindolo[4,3-fg]quinolin-9-yl)methanone] | 87.46 | 113.6 | (0.1 mg/kg) | 4.667 | 4.034 | 68.89 | as efficacious as the positive control desipramine | 117.9 | less efficacious than its N-methyl counterpart compound Int11 | 110.4 |  |
| CCCN1C[C@H](C(=O)N(CC)CC)C=C2c3cccc4[nH]cc(c34)C[C@H]21 [Compound 1, (6aR,9R)-N,N-diethyl-7-propyl-4,6,6a,7,8,9-hexahydroindolo[4,3-fg]quinoline-9-carboxamide] | 103.75 | 108.68 | (1 mg/kg) | 19.5 | 21.63 | 161.6 |  | 68.2 | induced a robust and dose-dependent HTR |  | reduced immobility time |
